Measurements: US6776996B2, “Pesticidal matrices” (priority 1997, dated 2004)

Test system: H. virescens
Test: Field evaluation against tobacco budworms on tobacco in North Carolina
Type: in vivo
Details: 0.75 lb of ai/acre
Description: A field evaluation is conducted on tobacco grown near Clayton, N.C. A wettable powder composition of this invention (composition 46) at 2×10^11, 5×10^11, and 8×10^11 bodies/acre, Bacillus thuringiensis (DIPEL® 2X, Abbott Laboratories) at 1.0 lb wettable powder (WP)/acre, and acephate (ORTHENE® 75SP, available from Valent USA, Walnut Creek, Calif.) at 0.75 lb active ingredient (ai)/acre are compared for efficacy against H. virescens. Biological materials are suspended in water containing an insect gustatory stimulant (PHEAST® available from […], Fresno, Calif.); aqueous dilutions of acephate contained no PHEAST®. Treatments and untreated check are replicated four times (small plots) in a randomized complete block design. By using fine-hair brushes, 1- to 2-day old laboratory-reared H. virescens are placed on the underside of leaves in each plot. Natural infestation of H. virescens also occurred at the test site. Treatments are applied to tobacco about 2 hours before each artificial larval infestation on days 1 and 8. Treatments are applied with a tractor-mounted, CO2-pressurized boom sprayer which is calibrated to deliver 25 gallons/acre through a single D2-33 nozzle centered over each tobacco row. Boom pressure during application is 60 lb/in^2.
At 2 and 5 days after first application and 5 and 9 days after second application, live H. virescens are counted on 20 plants in each plot. Additionally, visual estimate of leaf damage caused by larval feeding is made 14 days after the second application using the rating scale shown below.

For `COP(=O)(NC(C)=O)SC` (centres unmarked) [Acephate, acephate], the “Mean Number of Live Larvae per 20 Plants” value (Day of Test 3) was 6.0, the “Mean Number of Live Larvae per 20 Plants” value (Day of Test 8) was 5.8 and the “Mean Number of Live Larvae per 20 Plants” value (Day of Test 13) was 1.2. For the same compound, the “Mean Number of Live Larvae per 20 Plants” value (Day of Test 17) was 0.8 and the “Mean Plant Injury on Day 22 of Test” value (rating scale 0 (No Damage) to 4 (Severe Damage)) was 0.2.
